What was measured:
[1] = system: SH-SY5Y; assay: Cytotoxicity against human SH-SY5Y cells assessed as cell viability at 10 uM after 48 hrs by MTT assay relative to control; format: functional; conditions: read-out: Activity
[2] = target: Nicotinamide phosphoribosyltransferase (Mus musculus, UniProt Q99KQ4); assay: Inhibition of recombinant mouse NAMPT expressed in bacteria assessed as reduction in NADH formation using [14C]NAM as substrate measured for 1 hr by coupled enzymatic assay
[3] = target: Nicotinamide phosphoribosyltransferase (Homo sapiens, UniProt P43490); assay: Inhibition of NAMPT in human SH-SY5Y cells assessed as NAD depletion incubated for 16 hrs; format: cell-based
Nicotinamide phosphoribosyltransferase (Homo sapiens, UniProt P43490), sequence (P43490 whole entry): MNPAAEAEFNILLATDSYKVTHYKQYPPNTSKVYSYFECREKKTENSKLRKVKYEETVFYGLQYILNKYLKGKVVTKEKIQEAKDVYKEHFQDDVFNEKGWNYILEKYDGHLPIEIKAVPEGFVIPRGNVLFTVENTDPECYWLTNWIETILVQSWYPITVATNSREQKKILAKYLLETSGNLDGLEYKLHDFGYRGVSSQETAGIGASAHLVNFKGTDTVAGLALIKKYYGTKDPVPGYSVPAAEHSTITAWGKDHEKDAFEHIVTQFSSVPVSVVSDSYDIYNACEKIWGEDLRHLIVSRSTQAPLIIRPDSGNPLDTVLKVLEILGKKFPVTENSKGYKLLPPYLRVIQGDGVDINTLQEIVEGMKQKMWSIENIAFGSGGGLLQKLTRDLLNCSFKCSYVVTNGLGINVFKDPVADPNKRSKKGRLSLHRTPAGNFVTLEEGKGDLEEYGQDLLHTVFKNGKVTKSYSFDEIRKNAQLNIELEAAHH

[4] = system: SH-SY5Y; assay: Cytotoxicity against human SH-SY5Y cells assessed as reduction in cell viability after 48 hrs by MTT assay; format: functional, cell-based
[5] = system: SH-SY5Y; assay: Cytotoxicity against human SH-SY5Y cells assessed as cell viability at 1 uM after 48 hrs by MTT assay relative to control; format: functional; conditions: read-out: Activity
[6] = system: SH-SY5Y; assay: Cytotoxicity against human SH-SY5Y cells assessed as cell viability at 100 nM after 48 hrs by MTT assay relative to control; format: functional; conditions: read-out: Activity

Nicotinamide phosphoribosyltransferase (Mus musculus, UniProt Q99KQ4), sequence (Q99KQ4 whole entry): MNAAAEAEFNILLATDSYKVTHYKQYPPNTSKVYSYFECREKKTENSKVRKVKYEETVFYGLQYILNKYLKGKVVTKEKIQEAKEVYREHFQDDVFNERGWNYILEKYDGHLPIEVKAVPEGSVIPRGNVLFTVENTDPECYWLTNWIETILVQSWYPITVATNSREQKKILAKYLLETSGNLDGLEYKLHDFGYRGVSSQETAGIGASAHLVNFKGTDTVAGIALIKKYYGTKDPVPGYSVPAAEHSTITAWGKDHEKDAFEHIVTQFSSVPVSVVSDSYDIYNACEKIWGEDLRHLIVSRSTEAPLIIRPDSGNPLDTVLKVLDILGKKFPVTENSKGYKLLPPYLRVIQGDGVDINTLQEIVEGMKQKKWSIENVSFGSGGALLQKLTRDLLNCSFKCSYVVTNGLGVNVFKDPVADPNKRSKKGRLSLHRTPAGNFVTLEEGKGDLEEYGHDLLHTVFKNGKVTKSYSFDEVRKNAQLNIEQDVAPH

| Structure (SMILES) | viability at 10 µM [1] [%] | viability at 1 µM [5] [%] | further results |
| --- | --- | --- | --- |
| CNCC(=O)N(CCn1cc(CCCCCCCC(=O)NCCc2cccnc2)nn1)Cc1ccccc1 | 109 |  |  |
| O=C(CCCCCc1cn(Cc2ccc(-c3ccccc3)cc2)nn1)NCCc1ccncc1 | 100 |  |  |
| O=C(CCCCCc1cn(-c2ccccc2-c2ccccc2)nn1)NCCc1cccnc1 | 25 | 29.2 | IC50 [2]: 170 nM; IC50 [3]: 7.6 nM; EC50 [4]: 680 nM |
| O=C(CCCCCCCCc1cn(-c2ccc(N3CCOCC3)cc2)nn1)NCc1cccnc1 | 74 | 100 |  |
| O=C(CCCCCCCc1cn(-c2ccccc2CO)nn1)NCc1cccnc1 | 96 |  |  |
| O=C(CCCCCCCc1cn(-c2ccccc2Cc2ccccc2)nn1)NCc1cccnc1 | 94 |  |  |
| O=C(CCCCCCCc1cn(-c2ccccc2-c2ccccc2)nn1)Nc1cccnc1 | 111 |  |  |
| O=C(CCCCCCCc1cn(-c2ccccc2Cc2ccccc2)nn1)NCCc1cccnc1 | 101 |  |  |
| O=C(CCCCCc1cn(-c2ccccc2-c2ccccc2)nn1)NCc1cccnc1 | 12.5 | 13.4 | IC50 [2]: 267 nM; IC50 [3]: 1.1 nM; EC50 [4]: 456 nM |
| O=C(/C=C/c1cccnc1)NCCCCCc1cn(-c2ccccc2-c2ccccc2)nn1 |  | 32 | IC50 [2]: 114 nM; IC50 [3]: 0.0509 nM; viability at 0.1 µM [6]: 49%; EC50 [4]: 20 nM |
| O=C(CCCCCCCCc1cn(-c2cnc3ccccc3c2)nn1)NCc1cccnc1 | 29 | 102 |  |
| O=C(CCCCCCCCc1cn(-c2cnc3ccccc3c2)nn1)Nc1ccncc1 | 53 | 104 |  |
| O=C(Cc1cccnc1)NCCCCCc1cn(-c2ccccc2-c2ccccc2)nn1 |  | 99 | viability at 0.1 µM [6]: 106% |
| O=C(CCc1cccnc1)NCCCCCc1cn(-c2ccccc2-c2ccccc2)nn1 |  | 54 | viability at 0.1 µM [6]: 112% |
| O=C(CCCCCCCCc1cn(-c2ccc(N3CCOCC3)cc2)nn1)Nc1ccncc1 | 28 | 93 |  |
| O=C(CCCCCCCc1cn(-c2ccc(N3CCOCC3)cc2)nn1)Nc1ccncc1 | 103 |  |  |
| O=C(CCCCCCc1cn(-c2ccccc2-c2ccccc2)nn1)NCc1cccnc1 | 47 | 98 |  |
| O=C(CCCCCCCc1cn(-c2ccccc2-c2ccccc2)nn1)Nc1ccncc1 | 32 | 82 |  |
| O=C(CCCCCCCc1cn(-c2ccccc2Cc2ccccc2)nn1)NCCc1ccncc1 | 99 |  |  |
| O=C(CCCCCCCc1cn(-c2ccc(CN3CCOCC3)cc2)nn1)Nc1ccncc1 | 125 |  |  |
| O=C(/C=C/c1cccnc1)NCCCCC1CCN(C(=O)c2ccccc2)CC1 [DAPORINAD] |  |  | IC50 [2]: 61 nM; EC50 [4]: 3.2 nM |

Reference: ChEMBL document CHEMBL3751665, “Identification of a novel NAMPT inhibitor by combinatorial click chemistry and chemical refinement” (Medchemcomm, 2015)
